The record followed here is patent publication US5578445A, “In vitro method of evaluating the effects of a substance” (priority 1991, dated 1996).

Where two headings read alike, the source gives them in different places.

One experiment has as its system ZR 75-1. The experiment is described as follows: Proliferation, amount of ATP after 6 days, ZR 75-1. In kind it is cell-based, human. Particulars: for activity at 0.0001 µM: +E2 (0.1 nM), 6 days. As to the method:
The growth is determined by measuring the amount of ATP in the cells after incubation with ligands for 6 days. […]
Samples of the cells ZR 75-1 (8000 cells/well) and MCF7 (4000 cells/well), respectively, were distributed into microtiter plates having 96 wells.
The following hormone additions were made:
The medium was replaced by fresh medium of the same composition as on day 6, and hormone additions as on day 6.
6 days after hormone addition the number of cells and their morphology were investigated. Medium from each well was poured off. To each well was added 100 μl 1% TCA (trichloro acetic acid).

The next experiment relates to MCF7. Description: Proliferation, amount of ATP after 6 days, MCF7. Particulars: for effect on growth: MCF7; for activity at 0.0001 µM: +E2 (0.1 nM).

Regarding `CC/C(=C(\c1ccccc1)c1ccc(OCCN(C)C)cc1)c1ccccc1` [Tam, tamoxifen], the effect on growth result is on record as “functions as a weak agonist” with ZR 75-1 (10^-7 M Tamoxifen alone, listed as Tamoxifen); “weak agonistic effect” in the experiment with ZR 75-1 (10^-7 M Tamoxifen alone, listed as tamoxifen); “has no effect” with MCF7 (Tamoxifen alone). The activity at 1 µM was 131% in the experiment with ZR 75-1 (Homo sapiens, ZR-75-1, 144 h, + 10^-6 M Tam, -E2, 6 days, read-out: relative amount of ATP (no hormone added = 1)) and 94% in the experiment with MCF7 (Homo sapiens, MCF7, 144 h, read-out: relative amount of ATP (no hormone added = 1), MCF7, + 10^-6 M Tam, -E2, 6 days). The activity at 0.1 µM was 155% in the experiment on ZR 75-1 (Homo sapiens, ZR-75-1, 144 h, + 10^-7 M Tam, -E2, 6 days, read-out: relative amount of ATP (no hormone added = 1)) and 109% with MCF7 (Homo sapiens, MCF7, 144 h, read-out: relative amount of ATP (no hormone added = 1), MCF7, + 10^-7 M Tam, -E2, 6 days). The activity at 0.01 µM in the experiment on ZR 75-1 (Homo sapiens, ZR-75-1, 144 h, + 10^-8 M Tam, -E2, 6 days, read-out: relative amount of ATP (no hormone added = 1)) was determined as 109%; in the experiment with MCF7 (Homo sapiens, MCF7, 144 h, read-out: relative amount of ATP (no hormone added = 1), MCF7, + 10^-8 M Tam, -E2, 6 days), 122%. Besides, the activity at 0.001 µM amounted to 91% in the experiment on ZR 75-1 (Homo sapiens, ZR-75-1, 144 h, + 10^-9 M Tam, -E2, 6 days, read-out: relative amount of ATP (no hormone added = 1)) and 96% in the experiment on MCF7 (Homo sapiens, MCF7, 144 h, read-out: relative amount of ATP (no hormone added = 1), MCF7, + 10^-9 M Tam, -E2, 6 days). The “Tamoxifen concentration at which an antagonistic effect can be seen” value in the experiment with ZR 75-1 (presence of 0.1 nM E2) is on record as 10^-6 M.
On to `C[C@]12CC[C@@H]3c4ccc(O)cc4CC[C@H]3[C@@H]1CC[C@@H]2O` [E2, estradiol], for which the effect on growth result with ZR 75-1 (0.1 nM E2) and in the experiment with MCF7 (0.1 nM E2) was “increase their growth dramatically” each time. Further, the activity at 0.0001 µM in the experiment with ZR 75-1 (Homo sapiens, ZR-75-1, 144 h, No LY 117018 added, Experiment 2, read-out: relative amount of ATP (no hormone added = 1)) amounted to 468%; in the experiment on ZR 75-1 (Homo sapiens, ZR-75-1, 144 h, No Tam added, Experiment 1, read-out: relative amount of ATP (no hormone added = 1)), 351%; in the experiment with MCF7 (Homo sapiens, MCF7, 144 h, read-out: relative amount of ATP (no hormone added = 1), MCF7, No LY 117018 added, 6 days, Experiment 2) it was 230%; in the experiment on MCF7 (Homo sapiens, MCF7, 144 h, read-out: relative amount of ATP (no hormone added = 1), MCF7, No Tam added, 6 days, Experiment 1) it was 266%.
